4 molecules from patent US5840732A, “Imidazopyridine or imidazopyrimidine compounds, their production and use” (Takeda Chemical Industries Ltd., priority 1994, dated 1998) can be followed below.

The subject of test [1] is Wistar fatty rats (rat model of hereditary obese diabetes mellitus). In words: Diabetic nephritis improving action in Wistar fatty rats. The note with it: 50 mg/kg/day oral, 12 weeks, n=6, mean ± standard deviation; for Urinary Albumin: control 35.69 ± 15.44 (for 2), 24.53 ± 7.19 (for 3); for Urinary Total Protein: control 145.19 ± 34.99 (for 2), 131.53 ± 22.81 (for 3), both p < 0.05 vs control; for Plasma Glucose: control 352.00 ± 36.09 (for 2), 368.83 ± 24.35 (for 3), 3: p < 0.05 vs control. It is filed as in vivo, rat (male Wistar fatty). How it is done:
Diabetic nephritis improving action in Wistar fatty rats (rat model of hereditary obese diabetes mellitus)
Test method: Male Wistar fatty rats at 9 weeks of age were divided into two groups according to plasma glucose level, urinary total protein excretion and body weight: a control group and a test compound group (n=6). The test compound, in suspension in 0.5% methyl cellulose (Wako Pure Chemical) at 2 ml/kg, was orally administered by gavage once a day for 12 consecutive weeks. For the control group, only the 0.5% methyl cellulose suspension was orally administered in the same manner as the test compounds. At every 3 weeks, plasma glucose, urinary total protein and albumin excretion were quantitated by the enzyme method, the Lowry method (Journal of Biological Chemistry, Vol. 193, pp. 265-275 (1951)] and the method of Mohamed et al. [Journal of Immunology Methods, Vol. 74, pp. 17-22 (1984)], respectively.

In test [2] the test system is ICAM-1 expression in human umbilical cord vascular endothelial cells. The test can be described thus: Inhibitory activity of adhesion molecule expression (ICAM-1, cell-ELISA). The note with it: TNFα 1 ng/ml, 37° C., 5 hours. It is filed as cell-based. How it is done:
(§1) Inhibitory activity of adhesion molecule expression
(§2) Test method: To human umbilical cord vascular endothelial cells (purchased from Kurabo), cultured on gelatin-coated plates, compounds at various concentrations (test compounds) were added, followed by incubation at 37° C. for 15 minutes. Human tumor necrosis factor (TNFα, purchased from Genzyme) was then added to a final concentration of 1 ng/ml, followed by incubation at 37° C. for 3 hours for ELAM-1 expression or for 5 hours for ICAM-1 expression. After the reaction, cells were fixed with glutaraldehyde; the amounts of ELAM-1 and ICAM-1 expressed were determined by cell-ELISA. Anti-ELAM-1 antibody BBA-2 and an anti-ICAM-1 antibody BBA-4 were used as the first antibodies for the defection of ELAM-1 and ICAM-1, respectively, and horse radish peroxidase-labeled rabbit anti-mouse IgG antibody was used as the second antibody to determine the amount of adhesion molecules expressed on cells observed. The compound concentration at which 50% expression was expressed as the 50% inhibitory concentration (IC50), with the amount of expression in the absence of compounds as 100 and the amount of expression in the absence of TNFα as 0.

The subject of test [3] is ELAM-1 expression in human umbilical cord vascular endothelial cells. The test can be described thus: Inhibitory activity of adhesion molecule expression (ELAM-1, cell-ELISA). The note with it: TNFα 1 ng/ml, 37° C., 3 hours. It is filed as cell-based. How it is done: as §1, §2
A further test deals with mouse skin allograft. The test can be described thus: Immunosuppressive action on mouse skin allograft. The note with it: 16 days. It is filed as in vivo, mouse (BIOBR donors, C57BL/10 recipients). How it is done: Immunosuppressive action on mouse skin allograft
Test method: Male BIOBR mice and C57BL/10 mice, both at 6 weeks of age, were used as donors and recipients, respectively, and Grafts were prepared by killing donors by cervical vertebral dislocation, collecting full-thickness skin grafts from tail using a razor and tweezers, and cutting them into about 5 mm square pieces. Each graft was kept standing on gauze soaked with physiological saline, and used as soon as the recipient was prepared. Transplantation beds were prepared as follows. The recipient's back was clipped using clippers and sterilized with Isodine. Under ether anesthesia, back skin was picked up with tweezers, and a full-thickness skin graft was cut out into an about 5 mm square piece using scissors. The graft was transferred to the transplantation bed thus prepared, and fixed firmly using bandage. At 7 days after surgery, the bandage was removed, and the mice were observed every day to determine the day of complete necrosis of the graft as the rejection day. The compound was intraperitoneally administered in suspension in 5% gum arabic for 16 days after surgery.

`CCCC=C1SC(=O)N(CCCCSc2cccc3nccn23)C1=O` [compound 2]: in test [1], the “Urinary Albumin” value was 20.49 ± 6.95 mg/day, the “Urinary Total Protein” value is reported as 96.64 ± 18.31 mg/day and the “Plasma Glucose” value came out at 333.67 ± 46.41 mg/dL. This molecule also returned a concentration for half-maximal inhibition (IC50) in test [2] of 3 µM. In addition, the IC50 in test [3] was found to be 2.9 µM.
For `CCCC=C1SC(=O)N(CCCCCc2cccc3nccn23)C1=O` [compound 3], in test [1], the “Urinary Albumin” value is listed as 22.34 ± 7.24 mg/day, the “Urinary Total Protein” value amounted to 97.61 ± 16.26 mg/day and the “Plasma Glucose” value stood at 253.17 ± 34.14 mg/dL. In test [2], this molecule gave a half-inhibitory concentration (IC50) of 4.2 µM. In addition, the concentration for half-maximal inhibition (IC50) in test [3] came to 5 µM.
Regarding `CCCC=C1SC(=O)N(CCCCOc2cccn3ccnc23)C1=O` [compound 22], the IC50 in test [2] turned out to be 4.6 µM; in test [3], 2.9 µM. Besides, the “Mean Rejection Day” value with mouse skin allograft (50 mg/kg/day intraperitoneal, control 13.0) stood at 18.8 days.
Take `O=c1c(-c2ccccc2)c2n(c(=O)n1CCCCSc1cccc3nccn13)CCCS2(=O)=O` [compound 24]: the figures for the IC50 in test [2] and in test [3] were 1.1 µM and 0.8 µM, respectively. Also, in the test with mouse skin allograft (10 mg/kg/day intraperitoneal, control 13.5), the “Mean Rejection Day” value is 27.0 days.
